This note sets out measurements from US12441691B2 (Cytokinetics, Inc., priority 2020, dated 2025).

The assay deals with rabbit skeletal myofibrils (fast skeletal myofibrils). In words: Activation of fast skeletal myofibrils (PUMA assay, AC1.4). It is filed as biochemical. The conditions noted are these: calcium at pCa25, AC1.4 = concentration at which the compound increased the enzymatic activity. As for the experimental part:
Preparation of fast skeletal myofibrils: Rabbit skeletal myofibrils were prepared based upon the method of Herrmann et al. (Biochem. 32(28):7255-7263(1993). Myofibrils were prepared from rabbit psoas muscle purchased from Pel-Freez Biologicals (Arkansas) within 2 days of ordering, stored on ice. Minced muscle was homogenized in 10 volumes of ice-cold “standard” buffer (50 mM Tris, pH 7.4, 0.1 M KOAc, 5 mM KCl, 2 mM dithiothreitol (DTT), 0.2 mM phenylmethylsulfonyl fluoride (PMSF), 10 μM leupeptin, 5 μM pepstatin, and 0.5 mM sodium azide) containing 5 mM ethylenediaminetetraacetic acid (EDTA) and 0.5% Triton X-100 using an Omni-Macro homogenizer. Myofibrils were recovered by low speed centrifugation (3000 rpm for 10 minutes) and washed 2 times in the Triton X-100 containing buffer to ensure removal of cellular membrane. Following the Triton washes, myofibrils were washed 3 times in “standard” buffer containing 2 mM magnesium acetate. A final wash in assay buffer (12 mM piperazine-1,4-bis(2-ethanesulfonic acid) (PIPES), pH 6.8, 60 mM KCl, 1 mM DTT) was performed and brought to 10% sucrose for flash freezing in liquid nitrogen and storage at −80° C.
Activation of Fast Skeletal Myofibrils: Fast fiber activators were identified by measuring the enzymatic activity of muscle myofibril preparations using the proprietary PUMA (trademark) (see, e.g., U.S. Pat. Nos. 6,410,254, 6,743,599, 7,202,051, and 7,378,254) assay system. Myofibril preparations consisted of rabbit skeletal muscle (approximately 90% fast fibers) that had been mechanically homogenized and washed with a detergent (Triton X-100) to remove cellular membranes. This preparation retained all of the sarcomeric components in a native conformation and the enzymatic activity was still regulated by calcium. Compounds were tested using a myofibril suspension and a level of calcium sufficient to increase enzymatic activity of the myofibrils to 25% of their maximal rate (termed pCa25). Enzymatic activity was tracked via a pyruvate kinase and lactate dehydrogenase-coupled enzyme system. This assay regenerates myosin-produced ADP into ATP by oxidizing NADH, producing an absorbance change at 340 nm. The buffering system was 12 mM PIPES, 2 mM MgCl2, 1 mM DTT at pH 6.8 (PM12 buffer). […] In Table 9, “Example Compound” refers to the compound labeled with the same number in Table 2.
For `CC[C@H](C)[C@H]1C(=O)Nc2ccc(Cl)cc2CN1C(N)=O` [Compound 73, (S)-3-((S)-sec-butyl)-7-chloro-2-oxo-1,2,3,5-tetrahydro-4H-benzo[e][1,4]diazepine-4-carboxamide], the AC1.4 amounted to 0.93 µM.

For `CC[C@H](C)[C@H]1C(=O)Nc2ccc(C3CC3)cc2CN1C(N)=O` [Compound 74, (S)-3-((S)-sec-butyl)-7-cyclopropyl-2-oxo-1,2,3,5-tetrahydro-4H-benzo[e][1,4]diazepine-4-carboxamide], the AC1.4 was 2.39 µM.

For `CC[C@H](C)[C@H]1C(=O)Nc2cc(F)ccc2CN1C(N)=O` [Compound 75, (S)-3-((S)-sec-butyl)-8-fluoro-2-oxo-1,2,3,5-tetrahydro-4H-benzo[e][1,4]diazepine-4-carboxamide], the AC1.4 is 0.13 µM.

As for `CC[C@H](C)[C@H]1C(=O)Nc2cc(F)ccc2CN1C(=O)N1CC(O)C1` [Compound 76, (S)-3-((S)-sec-butyl)-8-fluoro-4-(3-hydroxyazetidine-1-carbonyl)-1,3,4,5-tetrahydro-2H-benzo[e][1,4]diazepin-2-one], the AC1.4 amounted to 0.14 µM.

As for `CC[C@H](C)[C@H]1C(=O)Nc2cc(F)ccc2CN1C(=O)NC` [Compound 77, (S)-3-((S)-sec-butyl)-8-fluoro-N-methyl-2-oxo-1,2,3,5-tetrahydro-4H-benzo[e][1,4]diazepine-4-carboxamide], the AC1.4 turned out to be 0.19 µM.

Turning to `CC[C@H](C)[C@H]1C(=O)Nc2c(F)cccc2CN1C(=O)NC` [Compound 78, (S)-3-((S)-sec-butyl)-9-fluoro-N-methyl-2-oxo-1,2,3,5-tetrahydro-4H-benzo[e][1,4]diazepine-4-carboxamide], the AC1.4 is 0.50 µM.

Take `CC[C@H](C)[C@H]1C(=O)Nc2c(F)cccc2CN1C(=O)N1CC(O)C1` [Compound 79, (S)-3-((S)-sec-butyl)-9-fluoro-4-(3-hydroxyazetidine-1-carbonyl)-1,3,4,5-tetrahydro-2H-benzo[e][1,4]diazepin-2-one]: the AC1.4 is 0.32 µM.

In the case of `CC[C@H](C)[C@H]1C(=O)Nc2cncc(F)c2CN1C(=O)c1cnn(C)c1` [Compound 80, (S)-3-((S)-sec-Butyl)-6-fluoro-4-(1-methyl-1H-pyrazole-4-carbonyl)-1,3,4,5-tetrahydro-2H-pyrido[3,4-e][1,4]diazepin-2-one], the AC1.4 was 0.47 µM.

Take `CC[C@H](C)[C@H]1C(=O)Nc2cncc(C)c2CN1C(N)=O` [Compound 81, (S)-3-((S)-sec-butyl)-6-methyl-2-oxo-1,2,3,5-tetrahydro-4H-pyrido[3,4-e][1,4]diazepine-4-carboxamide]: the AC1.4 turned out to be 3.80 µM.

Turning to `CC[C@H](C)[C@H]1C(=O)Nc2ccccc2CN1C(=O)c1cc2cnccc2[nH]1` [Compound 83, (S)-3-((S)-sec-butyl)-4-(1H-pyrrolo[3,2-c]pyridine-2-carbonyl)-1,3,4,5-tetrahydro-2H-benzo[e][1,4]diazepin-2-one], the AC1.4 was 0.03 µM.

For the compound `CC[C@H](C)[C@H]1C(=O)Nc2ccccc2CN1C(=O)c1ccn(C)n1` [Compound 84, (S)-3-((S)-sec-butyl)-4-(1-methyl-1H-pyrazole-3-carbonyl)-1,3,4,5-tetrahydro-2H-benzo[e][1,4]diazepin-2-one], the AC1.4 is 0.09 µM.

On to `CC[C@H](C)[C@H]1C(=O)Nc2ccccc2CN1C(=O)c1ccc(C(N)=O)[nH]1` [Compound 85, 5-((S)-3-((S)-sec-butyl)-2-oxo-2,3,4,5-tetrahydro-1H-benzo[e][1,4]diazepine-4-carbonyl)-1H-pyrrole-2-carboxamide], for which the AC1.4 was determined as 0.01 µM.

For the compound `CC[C@H](C)[C@H]1C(=O)Nc2ccccc2CN1C(=O)[C@H](C)O` [Compound 86, (S)-3-((S)-sec-butyl)-4-((S)-2-hydroxypropanoyl)-1,3,4,5-tetrahydro-2H-benzo[e][1,4]diazepin-2-one], the AC1.4 was 1.81 µM.

As to `CC[C@H](C)[C@H]1C(=O)Nc2ccccc2CN1/C(=N/C#N)NC` [Compound 87, (S,E)-3-((S)-sec-butyl)-N′-cyano-N-methyl-2-oxo-1,2,3,5-tetrahydro-4H-benzo[e][1,4]diazepine-4-carboximidamide], the AC1.4 turned out to be 0.07 µM.

`CC(C)[C@H]1C(=O)Nc2ccccc2CN1c1nccc(=O)[nH]1` [Compound 88, (S)-3-isopropyl-4-(6-oxo-1,6-dihydropyrimidin-2-yl)-1,3,4,5-tetrahydro-2H-benzo[e][1,4]diazepin-2-one]: the AC1.4 came to 1.22 µM.

Take `CC[C@H](C)[C@H]1C(=O)Nc2ccccc2CN1S(=O)(=O)c1ccc(F)cc1` [Compound 89, (S)-3-((S)-sec-butyl)-4-((4-fluorophenyl)sulfonyl)-1,3,4,5-tetrahydro-2H-benzo[e][1,4]diazepin-2-one]: the AC1.4 was determined as 0.18 µM.

`CC(=O)N1Cc2ccccc2NC(=O)[C@@H]1C1CCCCCC1` [Compound 91, (S)-4-acetyl-3-cycloheptyl-1,3,4,5-tetrahydro-2H-benzo[e][1,4]diazepin-2-one]: the AC1.4 turned out to be 0.08 µM.

Turning to `O=C1Nc2ccccc2CN(C(=O)CO)[C@H]1C1CCCCC1` [Compound 92, (S)-3-cyclohexyl-4-(2-hydroxyacetyl)-1,3,4,5-tetrahydro-2H-benzo[e][1,4]diazepin-2-one], the AC1.4 came to 0.40 µM.

Regarding `CC[C@H](C)[C@H]1C(=O)Nc2ccccc2CN1C(=O)Nc1ccc(=O)n(C)c1` [Compound 93, (S)-3-((S)-sec-butyl)-N-(1-methyl-6-oxo-1,6-dihydropyridin-3-yl)-2-oxo-1,2,3,5-tetrahydro-4H-benzo[e][1,4]diazepine-4-carboxamide], the AC1.4 amounted to 0.13 µM.

With `CC[C@H](C)[C@H]1C(=O)Nc2ccccc2CN1C(=O)Nc1cccn(C)c1=O` [Compound 94, (S)-3-((S)-sec-butyl)-N-(1-methyl-2-oxo-1,2-dihydropyridin-3-yl)-2-oxo-1,2,3,5-tetrahydro-4H-benzo[e][1,4]diazepine-4-carboxamide], the AC1.4 was found to be 0.15 µM.

For `CC[C@H](C)[C@H]1C(=O)Nc2ccccc2CN1C(=O)c1c[nH]c(=O)[nH]1` [Compound 95, (S)-3-((S)-sec-butyl)-4-(2-oxo-2,3-dihydro-1H-imidazole-4-carbonyl)-1,3,4,5-tetrahydro-2H-benzo[e][1,4]diazepin-2-one], the AC1.4 came to 0.04 µM.

As for `CC[C@H](C)[C@H]1C(=O)Nc2ccccc2CN1C(=O)Nc1cccnc1` [Compound 99, (S)-3-((S)-sec-butyl)-2-oxo-N-(pyridin-3-yl)-1,2,3,5-tetrahydro-4H-benzo[e][1,4]diazepine-4-carboxamide], the AC1.4 is 0.05 µM.

On to `CC[C@H](C)[C@H]1C(=O)Nc2ccccc2CN1C(=O)Nc1cn[nH]c1` [Compound 101, (S)-3-((S)-sec-butyl)-2-oxo-N-(1H-pyrzol-4-yl)-1,2,3,5-tetrahydro-4H-benzo[e][1,4]diazepine-4-carboxamide], for which the AC1.4 worked out at 0.05 µM.

For `CC[C@H](C)[C@H]1C(=O)Nc2ccccc2CN1C(=O)N1CC(CO)C1` [Compound 102, (S)-3-((S)-sec-butyl)-4-(3-(hydroxymethyl)azetidine-1-carbonyl)-1,3,4,5-tetrahydro-2H-benzo[e][1,4]diazepin-2-one], the AC1.4 is 0.37 µM.

Turning to `CC[C@H](C)[C@H]1C(=O)Nc2ccccc2CN1C(=O)N1CC[C@H]1C(N)=O` [Compound 103, (S)-1-((S)-3-((S)-sec-butyl)-2-oxo-2,3,4,5-tetrahydro-1H-benzo[e][1,4]diazepine-4-carbonyl)azetidine-2-carboxamide], the AC1.4 was determined as 1.22 µM.

`CC[C@H](C)[C@H]1C(=O)Nc2ccccc2CN1C(=O)c1c[nH]cn1` [Compound 104, (S)-3-((S)-sec-butyl)-4-(1H-imidazole-4-carbonyl)-1,3,4,5-tetrahydro-2H-benzo[e][1,4]diazepin-2-one]: the AC1.4 was 0.08 µM.

On to `CC[C@H](C)[C@H]1C(=O)Nc2ccccc2CN1C(=O)c1ccn[nH]1` [Compound 105, (S)-3-((S)-sec-butyl)-4-(1H-pyrazole-5-carbonyl)-1,3,4,5-tetrahydro-2H-benzo[e][1,4]diazepin-2-one], for which the AC1.4 is 0.10 µM.

In the case of `CC[C@H](C)[C@H]1C(=O)Nc2ccccc2CN1C(=O)[C@@H]1CCCO1` [Compound 106, (S)-3-((S)-sec-butyl)-4-((S)-tetrahydrofuran-2-carbonyl)-1,3,4,5-tetrahydro-2H-benzo[e][1,4]diazepin-2-one], the AC1.4 worked out at 0.89 µM.

For the compound `CC[C@H](C)[C@H]1C(=O)Nc2ccccc2CN1C(=O)[C@H]1CCCO1` [Compound 107, (S)-3-((S)-sec-butyl)-4-((R)-tetrahydrofuran-2-carbonyl)-1,3,4,5-tetrahydro-2H-benzo[e][1,4]diazepin-2-one], the AC1.4 came out at 0.29 µM.
